Among the test systems are HOP-62; OVCAR-8; EKVX; SNB-75; HT-29; UACC-257; MDA-MB-231; RXF 393; RPMI-8226; HL-60; A549; SK-MEL-2; BT-549; SN12C; ACHN; SK-MEL-28; OVCAR-5; SW-620; SK-OV-3; T47D.
Common to all, as to assay: inhibition of tumour cell growth, NCI panel, 48 h

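Dose response: 5 concentrations. Exposure: 48 h. Format: 96-well plates. Endpoint: linear interpolation; highest concentration if not reached. The concentration for 50% growth inhibition is given as GI50.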 Calls of active or inactive are those of the source. Rule as the data show it: active = GI50 up to about 1.1 µM and inactive = higher.

Take `NCC1CCCCC1.O=C(O)NCC1CCCCC1`: the GI50 was 17.5 µM (inactive) with HOP-62; 13.2 µM (inactive) in the experiment with OVCAR-8; 30.1 µM (inactive) with EKVX; 13.7 µM (inactive) in the experiment on SNB-75; 19.3 µM (inactive) in the experiment with HT-29; 22.2 µM (inactive) with UACC-257. The GI50 in the experiment on MDA-MB-231 was 25.8 µM (inactive); in the experiment with RXF 393 it was 19.1 µM (inactive); in the experiment on RPMI-8226, 1.36 µM (inactive); in the experiment on HL-60, 15.6 µM (inactive); in the experiment with A549 it was 30.1 µM (inactive); in the experiment with SK-MEL-2 it was 14.1 µM (inactive). For the same compound, the GI50 in the experiment with BT-549 is 26.5 µM (inactive); in the experiment on SN12C, 12.5 µM (inactive); in the experiment on ACHN, 23.9 µM (inactive); in the experiment with SK-MEL-28 it was 38 µM (inactive); with OVCAR-5, 31.9 µM (inactive); with SW-620, 17.9 µM (inactive).

For the compound `Cc1nc(N)nc(S)c1CCC(=O)O`, the GI50 in the experiment on SK-OV-3, in the experiment on HOP-62, in the experiment on OVCAR-8, in the experiment on EKVX, in the experiment on HT-29 and in the experiment with UACC-257 was > 100 µM (inactive) each time. The GI50 in the experiment on MDA-MB-231, in the experiment with RXF 393, in the experiment on RPMI-8226, in the experiment on HL-60, in the experiment with A549 and with SK-MEL-2 was > 100 µM (inactive) each time. Also, the GI50 in the experiment on BT-549, in the experiment with SN12C, in the experiment on ACHN, in the experiment on SK-MEL-28, with OVCAR-5 and in the experiment with SW-620 was > 100 µM (inactive) throughout.

Take `COc1cc(C2SCC(=O)N2c2ccc(-n3c(-c4ccccc4)nc4ccccc4c3=O)cc2)ccc1O` (stereo not drawn): the GI50 with SK-OV-3 was 82 µM (inactive); in the experiment on HOP-62, > 100 µM (inactive); in the experiment with OVCAR-8, > 100 µM (inactive); in the experiment on EKVX, > 100 µM (inactive); with HT-29, > 100 µM (inactive); in the experiment on T47D, 30 µM (inactive). Also, the GI50 is > 100 µM (inactive) with UACC-257; 97.9 µM (inactive) in the experiment with MDA-MB-231; 76.4 µM (inactive) in the experiment on RPMI-8226; > 100 µM (inactive) with HL-60; 74.8 µM (inactive) with A549; > 100 µM (inactive) with SK-MEL-2. In addition, the GI50 in the experiment on BT-549, in the experiment on ACHN, in the experiment on SK-MEL-28, with OVCAR-5 and in the experiment with SW-620 was > 100 µM (inactive) throughout.

Turning to `Cc1n2nc(N)sc2n[n+]1CC(=O)c1ccccc1`, the GI50 in the experiment on SK-OV-3 is 24.3 µM (inactive); with HOP-62 it was > 100 µM (inactive); with OVCAR-8, > 100 µM (inactive); with EKVX it was > 100 µM (inactive); with SNB-75 it was > 100 µM (inactive); in the experiment with HT-29, > 100 µM (inactive). Besides, the GI50 in the experiment with T47D, in the experiment on UACC-257, with RXF 393, in the experiment on RPMI-8226, in the experiment on A549 and with SK-MEL-2 was > 100 µM (inactive) each time. In addition, the GI50 in the experiment with BT-549, with SN12C, in the experiment on ACHN, in the experiment on SK-MEL-28, in the experiment with OVCAR-5 and with SW-620 was > 100 µM (inactive) each time.

As for `CC(=O)c1ccc(Nc2nc3ccccc3c3occc23)cc1`, the GI50 is 18.4 µM (inactive) in the experiment with SK-OV-3; 12.4 µM (inactive) in the experiment on HOP-62; 32.5 µM (inactive) with OVCAR-8; 15.9 µM (inactive) with EKVX; 4.16 µM (inactive) in the experiment on HT-29; 5.94 µM (inactive) in the experiment with T47D. The GI50 with UACC-257 was 13.2 µM (inactive); with MDA-MB-231, 13.1 µM (inactive); with RPMI-8226 it was 5.48 µM (inactive); in the experiment with HL-60 it was 0.036 µM (active); with A549, 11.1 µM (inactive); with SK-MEL-2, 14.6 µM (inactive). In addition, the GI50 is 19.8 µM (inactive) in the experiment with BT-549; 31.9 µM (inactive) in the experiment on SN12C; 11.1 µM (inactive) in the experiment on ACHN; 2.34 µM (inactive) in the experiment on SK-MEL-28; 36 µM (inactive) in the experiment on OVCAR-5.

Take `Nc1nc(N)c2c(-c3ccccc3)ccnc2n1`: the GI50 was > 100 µM (inactive) with SK-OV-3; > 100 µM (inactive) in the experiment on HOP-62; 18.5 µM (inactive) in the experiment with EKVX; > 100 µM (inactive) with HT-29; > 100 µM (inactive) in the experiment with UACC-257; > 100 µM (inactive) in the experiment on MDA-MB-231. Also, the GI50 with RXF 393, in the experiment with RPMI-8226, in the experiment with HL-60, with SK-MEL-2, with BT-549 and in the experiment with SN12C was > 100 µM (inactive) in each case. Moreover, the GI50 in the experiment with ACHN is > 100 µM (inactive); in the experiment with SK-MEL-28, 40.5 µM (inactive); in the experiment with OVCAR-5 it was > 100 µM (inactive); with SW-620, 39.7 µM (inactive).

`NNC(=S)N1CCN(C(=S)NN)CC1`: the GI50 with SK-OV-3, in the experiment with HOP-62, with EKVX, with SNB-75, with HT-29 and in the experiment with T47D was > 100 µM (inactive) in each case. Also, the GI50 is > 100 µM (inactive) with UACC-257; > 100 µM (inactive) with MDA-MB-231; > 100 µM (inactive) in the experiment with RPMI-8226; 32.4 µM (inactive) with HL-60; > 100 µM (inactive) in the experiment on A549; > 100 µM (inactive) in the experiment on SK-MEL-2. The GI50 with BT-549, in the experiment with SN12C, with ACHN, in the experiment with SK-MEL-28, in the experiment with OVCAR-5 and in the experiment with SW-620 was > 100 µM (inactive) each time.

`c1ccc2c(c1)CCN1CCc3ccccc3C1C2` (stereo not drawn): the GI50 in the experiment with SK-OV-3 is 64 µM (inactive); in the experiment on HOP-62 it was 56.2 µM (inactive); with OVCAR-8 it was 81.1 µM (inactive); in the experiment with EKVX it was 40.4 µM (inactive); in the experiment on SNB-75 it was 36.4 µM (inactive); in the experiment on HT-29 it was 28.2 µM (inactive). The GI50 is > 100 µM (inactive) in the experiment with T47D; 62.4 µM (inactive) in the experiment on UACC-257; 42.3 µM (inactive) in the experiment with MDA-MB-231; 43 µM (inactive) with RPMI-8226; 76.9 µM (inactive) with HL-60; 35.8 µM (inactive) with A549. In addition, the GI50 in the experiment on SK-MEL-2 was 51.2 µM (inactive); in the experiment on BT-549 it was 80.7 µM (inactive); in the experiment with SN12C, 43.4 µM (inactive); in the experiment on ACHN, 77.6 µM (inactive); in the experiment with SK-MEL-28 it was 59.6 µM (inactive); with OVCAR-5, 38.4 µM (inactive). Besides, the GI50 in the experiment on SW-620 was 64.6 µM (inactive).

Regarding `CC1=CC2=C(C#N)C(=O)OC2(C)C(c2ccccc2)C1` (stereo not drawn), the GI50 with SK-OV-3 is > 100 µM (inactive); with HOP-62, > 100 µM (inactive); with OVCAR-8, > 100 µM (inactive); in the experiment with EKVX, > 100 µM (inactive); with SNB-75, 16.2 µM (inactive); with HT-29 it was > 100 µM (inactive). The GI50 with UACC-257 is > 100 µM (inactive); in the experiment on MDA-MB-231, > 100 µM (inactive); with RPMI-8226, 77.8 µM (inactive); with A549, > 100 µM (inactive); in the experiment on SK-MEL-2, > 100 µM (inactive); with BT-549 it was > 100 µM (inactive). The GI50 in the experiment on SN12C, with ACHN, in the experiment on SK-MEL-28, in the experiment on OVCAR-5 and in the experiment on SW-620 was > 100 µM (inactive) each time.

Regarding `COc1c2c(cc3c1C(=O)c1c(O)cccc1C3=O)CC(O)CC2` (stereo not drawn), the GI50 in the experiment with SK-OV-3 was 21.5 µM (inactive); in the experiment with HOP-62, 19.3 µM (inactive); in the experiment with OVCAR-8, 40.5 µM (inactive); in the experiment on EKVX, 29.8 µM (inactive); in the experiment with SNB-75, 34.8 µM (inactive); in the experiment on HT-29, > 100 µM (inactive). Moreover, the GI50 in the experiment with T47D was 7.18 µM (inactive); in the experiment with UACC-257, > 100 µM (inactive); with MDA-MB-231, 21.6 µM (inactive); in the experiment on HL-60 it was > 100 µM (inactive); in the experiment with A549, > 100 µM (inactive); in the experiment on SK-MEL-2, > 100 µM (inactive). Also, the GI50 in the experiment with BT-549 is 19.5 µM (inactive); in the experiment on SN12C, > 100 µM (inactive); with ACHN, 23.6 µM (inactive); with SK-MEL-28, > 100 µM (inactive); with OVCAR-5, > 100 µM (inactive); with SW-620, > 100 µM (inactive).

Turning to `C[C@@H]1CC[C@]2(C(=O)O)CC[C@]3(C)C(=CC[C@@H]4[C@@]5(C)CC[C@H](O)C(C)(C)[C@@H]5CC[C@]43C)[C@@H]2[C@]1(C)O` [POMOLIC ACID], the GI50 in the experiment with SK-OV-3 was 17.9 µM (inactive); in the experiment on OVCAR-8 it was 20.2 µM (inactive); with EKVX, 18.3 µM (inactive); with SNB-75 it was 13.5 µM (inactive); with T47D, 16.4 µM (inactive); with UACC-257, 5.42 µM (inactive). For the same compound, the GI50 in the experiment on MDA-MB-231 is 8.79 µM (inactive); with RPMI-8226, 16.3 µM (inactive); in the experiment on HL-60, 4.35 µM (inactive); in the experiment with A549 it was 17.2 µM (inactive); in the experiment on SK-MEL-2, 17.1 µM (inactive); in the experiment on BT-549 it was 14.4 µM (inactive). In addition, the GI50 in the experiment with SN12C is 13.6 µM (inactive); with ACHN it was 16.5 µM (inactive); in the experiment with SK-MEL-28 it was 13.6 µM (inactive); in the experiment on OVCAR-5, 17.7 µM (inactive); in the experiment with SW-620 it was 21.9 µM (inactive).

(Values after ChEMBL document CHEMBL1201862, “PubChem BioAssay data set” (2004).)
